Assay results as given in article PMC11207335, “In Vitro Metabolism and Transport Characteristics of Zastaprazan” (Pharmaceutics, 2024).
Like-named read-outs stand apart in the source and are kept apart here.

Experiments:
GERD lesion = settings: rats, compared with vonoprazan; cited from earlier work
α2B = α2B (Homo sapiens, UniProt P18089); experiment: BioPrint profiling, α2B; settings: BioPrint profiling (Eurofins CEREP)
OCT2 = molecular target: T1, OCT2 (Homo sapiens, UniProt O15244); experiment: Uptake into HEK293 cells expressing OCT2; settings: for Uptake Rate / Fold-Change: 6 μM; for Substrate: OCT2; for Fold-Change: vs HEK293-mock
T1 sequence (O15244 1-555): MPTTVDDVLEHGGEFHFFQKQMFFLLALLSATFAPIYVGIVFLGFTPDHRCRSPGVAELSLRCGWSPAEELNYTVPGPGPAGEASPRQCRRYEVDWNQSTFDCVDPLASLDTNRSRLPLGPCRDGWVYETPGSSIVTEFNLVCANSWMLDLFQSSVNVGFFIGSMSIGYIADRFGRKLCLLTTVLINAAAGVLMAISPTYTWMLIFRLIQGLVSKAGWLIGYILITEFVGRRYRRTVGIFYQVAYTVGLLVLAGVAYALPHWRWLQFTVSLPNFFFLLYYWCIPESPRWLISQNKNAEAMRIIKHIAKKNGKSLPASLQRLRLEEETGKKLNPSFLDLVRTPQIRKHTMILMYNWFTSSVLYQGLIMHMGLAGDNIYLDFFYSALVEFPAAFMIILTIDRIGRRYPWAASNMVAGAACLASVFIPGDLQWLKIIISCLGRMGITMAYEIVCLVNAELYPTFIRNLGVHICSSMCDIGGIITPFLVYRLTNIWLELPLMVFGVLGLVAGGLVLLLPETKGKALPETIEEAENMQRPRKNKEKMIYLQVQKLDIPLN

P-gp = molecular target: T2, P-gp (Homo sapiens, UniProt P08183); experiment: Permeability in LLC-PK1-P-gp cells; type: in vitro ADME; settings: for Substrate: P-gp; for Papp A→B at 1 h, 4 µM / Papp B→A at 1 h, 4 µM / efflux ratio at 1 h, 4 µM: pig, LLC-PK1-P-gp; for efflux ratio at 1 h, 4 µM: read-out: ER
T2 construct: host or cells: LLC-PK1 (porcine kidney cells)
Experimental: LLC-PK1-P-gp or BCRP cells were seeded on collagen-coated 24-transwell membranes at a density of 2.5 × 10^5 cells/mL and maintained at 37 °C in a humidified atmosphere with 5% CO2/95% air for 5 days in Medium 199 supplemented with 10% […], 50 μg/mL of gentamycin, and 50 μg/mL of hygromycin. The culture medium was replaced every other day. On the day of the experiment, the growth medium was discarded, and the attached cells were washed with prewarmed HBSS (pH 7.4) and preincubated with HBSS for 20 min at 37 °C. […] Aliquots (0.1 mL) in the apical side were transferred to clean tubes every 15 min for 1 h and replaced with an equal volume of fresh HBSS.
LLC-PK1-P-gp or BCRP cells were seeded on collagen-coated 24-transwell membranes at a density of 2.5 × 10^5 cells/mL and cultured for 5 days. The growth medium was discarded on the day of the experiment, and the attached cells were washed with prewarmed HBSS (pH 7.4) and preincubated with HBSS for 20 min at 37 °C. […] Aliquots (0.1 mL) in the apical side were transferred to clean tubes every 15 min for 1 h and replaced with an equal volume of fresh HBSS. Aliquots (30 μL) of each sample were vortex-mixed with 90 μL of IS solution for 1 min, and then centrifugation was performed at 13,500 rpm at 4 °C for 5 min. Aliquots (5 μL) of the supernatant were injected into the LC-MS/MS for analysis.
The permeability (Papp) was calculated from the following equation [23, 24]: Papp(cm/s)=transport ratenmol/s/JP−1366 or M1 concentration (μM)×surface area of membrane (cm^2)

OATP1B3 = molecular target: T3, OATP1B3 (Homo sapiens, UniProt Q9NPD5); experiment: Uptake into HEK293 cells expressing OATP1B3; settings: for Uptake Rate / Fold-Change: 6 μM; for Substrate: OATP1B3; for Fold-Change: vs HEK293-mock
T3 sequence (Q9NPD5 1-702): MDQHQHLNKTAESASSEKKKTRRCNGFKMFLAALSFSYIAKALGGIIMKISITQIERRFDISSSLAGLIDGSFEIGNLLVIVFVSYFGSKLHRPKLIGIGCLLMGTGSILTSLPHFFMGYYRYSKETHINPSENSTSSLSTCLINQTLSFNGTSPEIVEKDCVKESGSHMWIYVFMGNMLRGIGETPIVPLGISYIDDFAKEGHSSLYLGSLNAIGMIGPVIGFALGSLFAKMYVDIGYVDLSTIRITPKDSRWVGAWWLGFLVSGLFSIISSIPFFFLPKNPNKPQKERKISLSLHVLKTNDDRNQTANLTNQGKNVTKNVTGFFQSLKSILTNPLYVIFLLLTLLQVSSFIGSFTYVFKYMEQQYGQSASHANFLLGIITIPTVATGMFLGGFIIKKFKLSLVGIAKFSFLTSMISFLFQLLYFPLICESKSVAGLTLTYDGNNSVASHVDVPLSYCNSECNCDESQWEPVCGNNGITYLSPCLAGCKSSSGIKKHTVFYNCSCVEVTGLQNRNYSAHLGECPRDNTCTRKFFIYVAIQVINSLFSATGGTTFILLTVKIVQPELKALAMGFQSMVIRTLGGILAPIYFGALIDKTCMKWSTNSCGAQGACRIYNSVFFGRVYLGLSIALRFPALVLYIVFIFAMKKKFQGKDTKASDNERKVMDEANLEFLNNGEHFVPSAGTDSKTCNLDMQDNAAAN

[1] = system: human, dog, monkey, mouse, and rat hepatocytes; experiment: In vitro metabolic profiling of JP-1366 in hepatocytes; type: in vitro ADME; settings: 10 µM JP-1366, 60 min; H human, D dog, Mk monkey, M mouse, R rat
Experimental: Cryopreserved human, dog, monkey, mouse, and rat hepatocytes were purified and recovered according to the manufacturer’s protocol. […] The metabolic reaction in each sample well was quenched by adding 120 μL of ice-cold acetonitrile.
MS spectra were obtained in positive-ion mode using electrospray ionization under optimized conditions as follows: capillary temperature, 350 °C; sheath gas flow rate, 40 (arbitrary units); aux gas flow rate, 10 (arbitrary units); and aux gas heater temperature, 350 °C. Full MS scan with data-dependent MS/MS was performed from m/z 100 to m/z 1000.

[2] = molecular target: T4, human cDNA-expressed CYP2C19 (Homo sapiens, UniProt P33261); experiment: Enzyme kinetics of JP-1366 metabolism in cDNA-expressed CYP2C19; type: in vitro ADME
T4 construct: purchased Corning Life Sciences
Experimental: The reaction was initiated by adding 5 μL of NADPH-generating system in triplicate, and the mixture was further incubated for 30 min at 37 °C in a shaking water bath.
The concentrations of the metabolites were quantitated, and their formation rates (pmol/mg protein/min) were calculated by dividing the amounts of metabolites formed from the incubation with human liver microsomes and human cDNA-expressed CYP or UGT enzymes by the incubation time.

[3] = pH 7.4, with CsA 20 μM, CsA 20 μM
[4] = formation of the labelled metabolite from JP-1366, CYP2C19

T2 sequence (P08183 whole entry): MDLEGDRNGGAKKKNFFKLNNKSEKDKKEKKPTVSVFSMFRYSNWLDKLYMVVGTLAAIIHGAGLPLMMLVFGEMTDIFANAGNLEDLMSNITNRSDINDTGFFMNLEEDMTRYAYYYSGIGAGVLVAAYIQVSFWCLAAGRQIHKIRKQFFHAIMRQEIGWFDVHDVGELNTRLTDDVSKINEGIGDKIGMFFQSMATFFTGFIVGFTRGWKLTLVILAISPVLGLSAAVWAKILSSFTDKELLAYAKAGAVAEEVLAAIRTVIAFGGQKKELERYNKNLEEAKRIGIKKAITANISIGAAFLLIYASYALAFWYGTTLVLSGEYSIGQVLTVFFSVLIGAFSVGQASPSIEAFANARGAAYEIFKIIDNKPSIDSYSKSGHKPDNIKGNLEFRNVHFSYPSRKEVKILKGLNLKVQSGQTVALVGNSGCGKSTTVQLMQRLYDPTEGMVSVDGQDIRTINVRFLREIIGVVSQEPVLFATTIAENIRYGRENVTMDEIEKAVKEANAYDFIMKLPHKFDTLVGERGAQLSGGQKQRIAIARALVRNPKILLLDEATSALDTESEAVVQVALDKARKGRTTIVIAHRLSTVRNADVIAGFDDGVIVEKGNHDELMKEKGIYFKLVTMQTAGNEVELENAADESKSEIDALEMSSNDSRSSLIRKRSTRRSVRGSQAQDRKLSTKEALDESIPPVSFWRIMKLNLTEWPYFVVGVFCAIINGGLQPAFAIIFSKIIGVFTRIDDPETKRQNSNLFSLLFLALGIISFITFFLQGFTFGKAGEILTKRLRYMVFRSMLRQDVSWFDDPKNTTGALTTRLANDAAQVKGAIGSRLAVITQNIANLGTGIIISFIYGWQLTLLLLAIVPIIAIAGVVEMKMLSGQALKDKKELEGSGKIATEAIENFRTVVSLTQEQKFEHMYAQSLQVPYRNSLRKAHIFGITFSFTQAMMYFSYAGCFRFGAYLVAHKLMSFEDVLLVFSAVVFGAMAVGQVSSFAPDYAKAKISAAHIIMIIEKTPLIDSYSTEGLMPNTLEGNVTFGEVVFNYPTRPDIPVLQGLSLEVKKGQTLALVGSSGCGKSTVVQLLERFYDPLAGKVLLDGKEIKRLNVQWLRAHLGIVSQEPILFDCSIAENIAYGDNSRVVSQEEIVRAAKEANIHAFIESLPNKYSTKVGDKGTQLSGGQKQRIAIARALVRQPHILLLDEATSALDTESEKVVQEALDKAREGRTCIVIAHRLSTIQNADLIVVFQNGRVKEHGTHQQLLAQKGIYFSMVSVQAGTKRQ
T4 sequence (P33261 whole entry): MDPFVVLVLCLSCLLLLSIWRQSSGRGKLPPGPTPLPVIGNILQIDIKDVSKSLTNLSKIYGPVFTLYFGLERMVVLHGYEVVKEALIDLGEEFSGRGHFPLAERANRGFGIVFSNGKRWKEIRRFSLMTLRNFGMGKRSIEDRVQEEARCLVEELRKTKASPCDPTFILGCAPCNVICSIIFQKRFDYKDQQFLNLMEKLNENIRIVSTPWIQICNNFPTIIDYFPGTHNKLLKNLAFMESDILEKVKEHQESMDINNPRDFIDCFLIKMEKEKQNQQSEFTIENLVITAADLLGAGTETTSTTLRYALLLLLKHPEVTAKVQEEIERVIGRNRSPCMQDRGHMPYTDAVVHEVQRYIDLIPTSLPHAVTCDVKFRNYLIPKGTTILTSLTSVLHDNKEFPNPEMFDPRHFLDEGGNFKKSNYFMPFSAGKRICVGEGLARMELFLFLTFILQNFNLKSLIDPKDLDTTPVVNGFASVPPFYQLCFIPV
Chain of α2B (P18089 whole entry): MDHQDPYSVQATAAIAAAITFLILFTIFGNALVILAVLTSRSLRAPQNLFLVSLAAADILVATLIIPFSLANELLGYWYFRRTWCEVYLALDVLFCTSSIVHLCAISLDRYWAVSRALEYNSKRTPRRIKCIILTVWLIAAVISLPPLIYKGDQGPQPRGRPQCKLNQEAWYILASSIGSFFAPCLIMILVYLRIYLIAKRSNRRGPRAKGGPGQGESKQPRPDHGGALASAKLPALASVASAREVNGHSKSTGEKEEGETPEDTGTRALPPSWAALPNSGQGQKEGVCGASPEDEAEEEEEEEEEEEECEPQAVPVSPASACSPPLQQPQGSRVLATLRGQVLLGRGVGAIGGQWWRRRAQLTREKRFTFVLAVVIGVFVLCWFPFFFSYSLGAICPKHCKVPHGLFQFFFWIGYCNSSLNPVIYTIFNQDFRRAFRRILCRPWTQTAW

| Uptake Rate (OCT2; HEK293-OCT2, cimetidine 100 μM) [pmol/min/10^5 Cells] | Uptake Rate (OCT2; HEK293-OCT2, control) [pmol/min/10^5 Cells] | Substrate (OCT2) | Substrate (P-gp) | Papp A→B at 1 h, 4 µM (P-gp; [3]) [×10⁻⁶ cm/s] | Papp B→A at 1 h, 4 µM (P-gp; [3]) [×10⁻⁶ cm/s] | Papp A→B at 1 h, 4 µM (P-gp; pH 7.4, Control) [×10⁻⁶ cm/s] | Papp B→A at 1 h, 4 µM (P-gp; pH 7.4, Control) [×10⁻⁶ cm/s] | Uptake Rate (OATP1B3; HEK293-OATP1B3, control) [pmol/min/10^5 Cells] | Uptake Rate (OATP1B3; HEK293-OATP1B3, rifampin 20 μM) [pmol/min/10^5 Cells] | Substrate (OATP1B3) | SMILES | further results |
| --- | --- | --- | --- | --- | --- | --- | --- | --- | --- | --- | --- | --- |
| 49.28 ± 4.50 | 51.71 ± 1.36 | No | No | 20.7 ± 1.31 | 32 ± 0.94 | 20.3 ± 0.53 | 25.6 ± 1.71 | 44.54 ± 0.74 | 52.67 ± 2.99 | No | Cc1cccc(C)c1CNc1cc(C(=O)N2CCC2)cn2c(C)c(C)nc12 [JP-1366, 1-azetidinyl(8-(((2,6-dimethylphenyl)methyl)amino)-2,3-dimethylimidazo(1,2-a)pyridin-6-yl)methanone] | GERD lesion inhibition rates (GERD lesion): greater GERD lesion inhibition rates; IC50 (α2B): 1200 nM |
| 49.28 ± 4.50 | 51.71 ± 1.36 | No | Yes | 18.5 ± 0.96 | 62.8 ± 5.26 | 6.99 ± 0.6 | 99.3 ± 1.66 | 44.54 ± 0.74 | 52.67 ± 2.99 | No | Cc1cccc(CO)c1CNc1cc(C(=O)N2CCC2)cn2c(C)c(C)nc12 [M1, azetidin-1-yl(8-((2-(hydroxymethyl)-6-methyl-benzyl)amino)-2,3-dimethylimidazo[1,2-a]pyridin-6-yl)methanone] | Hepatocytes (species in which the metabolite was found) [1]: H, D, Mk, M, R; CLint [2, 4]: 0.068 μL/min/pmol CYP; n (Hill coefficient) [2, 4]: 1.6; Contribution (%) ([2]; relative contribution of CYP2C19 to formation of the labelled metabolite): 0.1%; Fold-Change (OCT2; HEK293-OCT2, cimetidine 100 μM): 1.0; Fold-Change (OCT2; HEK293-OCT2, control): 1.0; efflux ratio at 1 h, 4 µM (P-gp; [3]): 3.4; efflux ratio at 1 h, 4 µM (P-gp; pH 7.4, Control): 14.2; Fold-Change (OATP1B3; HEK293-OATP1B3, control): 0.9; Fold-Change (OATP1B3; HEK293-OATP1B3, rifampin 20 μM): 1.0 |
